We go through six molecules from BindingDB's records for doi:10.1021/bi030031h (Medical College of Ohio, 2003).

The test deals with T1, Glycine--tRNA ligase (Bombyx mori, UniProt Q04451).
T1 sequence (Q04451 whole entry): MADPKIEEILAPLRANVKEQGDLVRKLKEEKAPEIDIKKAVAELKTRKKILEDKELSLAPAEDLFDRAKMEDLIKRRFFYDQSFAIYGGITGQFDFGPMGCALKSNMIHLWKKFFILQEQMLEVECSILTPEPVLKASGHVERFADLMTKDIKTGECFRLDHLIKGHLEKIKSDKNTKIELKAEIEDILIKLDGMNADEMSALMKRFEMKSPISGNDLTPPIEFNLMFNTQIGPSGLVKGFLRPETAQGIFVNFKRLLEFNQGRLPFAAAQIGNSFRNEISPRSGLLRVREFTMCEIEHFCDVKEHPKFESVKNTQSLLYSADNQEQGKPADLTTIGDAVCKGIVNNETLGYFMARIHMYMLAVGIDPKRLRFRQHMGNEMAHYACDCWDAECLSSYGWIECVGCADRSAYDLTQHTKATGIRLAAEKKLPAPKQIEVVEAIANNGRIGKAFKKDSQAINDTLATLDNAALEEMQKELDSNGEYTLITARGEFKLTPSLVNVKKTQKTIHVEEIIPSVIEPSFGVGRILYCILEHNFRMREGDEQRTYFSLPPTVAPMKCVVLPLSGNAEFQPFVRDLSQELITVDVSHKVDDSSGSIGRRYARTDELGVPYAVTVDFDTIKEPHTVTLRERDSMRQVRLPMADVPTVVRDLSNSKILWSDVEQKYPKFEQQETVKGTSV
Put plainly: In Vitro Enzyme Activity Assay. The settings on record: pH 7.5; 25 °C. From the text:
Aminoacyl-tRNA synthetase assays were measuring the incorporation of [14C] amino acid into tRNA.
One may read the IC50 as the midpoint of a concentration-inhibition curve. In general, Ki refers to the dissociation constant of the complex between target and ligand, obtained from inhibition or displacement. Lower therefore signals tighter binding. `Nc1ncnc2c1ncn2[C@@H]1O[C@H](COP(=O)(O)OP(=O)(O)OP(=O)(O)O)[C@@H](O)[C@H]1O` registered a half-inhibitory concentration (IC50) of 100 µM and an inhibition constant (Ki) of 13 µM.
The term Kd denotes a measure of binding affinity in units of concentration. As to `NCC(=O)NS(=O)(=O)OC[C@H]1O[C@@H](n2cnc3c(N)ncnc32)[C@H](O)[C@@H]1O` [5-O-[N-(L-glycyl)sulfamoyl]adenosine], the IC50 was determined as 2 µM, the Kd amounted to 0.27 µM and the Ki is 0.05 µM.
As to `Nc1ncnc2c1ncn2[C@@H]1O[C@H](COP(=O)(O)OP(=O)(O)NP(=O)(O)O)[C@@H](O)[C@H]1O` [AMP.P[NH]P], half-maximal inhibition (IC50) was put at 100 µM and the Ki amounted to 20 µM.
On the same counts, the results for `Nc1ncnc2c1ncn2[C@@H]1O[C@H](COP(=O)(O)O)[C@@H](O)[C@H]1O` [adenosine 5 -monophosphate] are 800 µM and 80 µM.
On the same counts, the results for `Nc1ncnc2c1ncn2[C@@H]1O[C@H](COP(=O)(O)OP(=O)(O)CP(=O)(O)O)[C@@H](O)[C@H]1O` [adenylylmethylenediphosphonate] are 10 µM and 0.8 µM.
On the same counts, the results for `Nc1ncnc2c1ncn2[C@@H]1O[C@H](COP(=O)(O)CP(=O)(O)O)[C@@H](O)[C@H]1O` [alpha, beta-methyleneadenosine 5 -diphosphate] are 600 µM and 60 µM.
